# In patent publication US8575218B2, “Thiol-containing compounds for the removal of elements from tissues and formulations therefor” (priority 2009, dated 2013):
# Experiments:
# [1] = Solubility of isolated product in solvents; type: physicochemical
# [2] = test system: goldfish; experiment: Exposure of goldfish to mercuric acetate with and without chelators; type: in vivo
# Protocol: Individual goldfish were placed in 200 ml water with 10 mM sodium chloride in 250 ml Erlenmeyer flasks (pH 7.00). Air was pumped into the flasks to maintain a healthy supply of oxygen. The 24 hour day was divided in to a 12 hour light/dark photoperiod. The goldfish were allowed to acclimatize for a week before the experiment was conducted, with daily water changes. Goldfish were fed standard fish food for 15 minutes each day before the water was changed.
# The chelate ligands were dissolved in dimethyl sulfoxide (DMSO, 0.5 ml) before addition to the flasks. The experimental treatments evaluated are as listed in Table 1 below, and included mercuric acetate, B9, EEAB9, GB9, GEEAB9, and DMSO in the amounts shown in Table 1. B9 and EEAB9 were dissolved in DMSO (0.5 ml) before addition to the water. No precipitate was formed during the dissolution.
Compound,Solubility in solvents [1],Goldfish state (Alive/Dead) at 30 min ([2]; mercuric acetate 0.5 mM + DMSO 0.5 ml),Goldfish state (Alive/Dead) at 30 min ([2]; mercuric acetate 0.5 mM alone),Time to death of goldfish ([2]; mercuric acetate without chelator)
NC(CCC(=O)NC(CSSCCNC(=O)c1cccc(C(=O)NCCSSCC(NC(=O)CCC(N)C(=O)O)C(=O)NCC(=O)O)c1)C(=O)NCC(=O)O)C(=O)O (stereo not shown) [GB9],readily dissolved in water,,,
CC(=O)[O-].CC(=O)[O-].[Hg+2] [Mercuric acetate],,Dead,Dead,≤ 30 min
